Literature values in patent US20030124524A1, “Screening assays for identifying modulators of the inflammatory or immune response” (priority 2000, published 2003).
Where two headings read alike, the source gives them in different places.

rhIL-1ra: recombinant human IL-1 receptor antagonist protein, useful for treatment of rheumatoid arthritis in a genotype-dependent manner
response to treatment of rheumatoid arthritis (patients carrying at least one IL-1A (+4845) allele 2 (and alleles in linkage disequilibrium)): substantial and significant response
response to treatment of rheumatoid arthritis (patients homozygous for IL-1A (+4845) allele 1): response no better than placebo
